Values quoted from earlier work as cited in patent publication US8759404B2, “Intravenous propofol emulsion compositions having preservative efficacy” (Bharat Serums & Vaccines Ltd., priority 2005, dated 2014).

Row | Structure (SMILES) | Oral LD50 in rats (rats; oral) | LD50 (rats; administered orally) | solubility in aqueous media (aqueous media) | solubility in fat solvents (chloroform, benzene, ethanol, or acetone)
1 | CCCCCCCCCC(=O)O [Capric acid, Decanoic acid] | more than 10,000 mg/kg | – | – | –
2 | CCCCCCCCCCCC(=O)OCC(O)CO (stereo not shown) [Monolaurin, monoglyceryl ester of lauric acid] | – | about 53,000 mg/kg body weight | insoluble | highly soluble
